Data on 16 compounds can be found in ChEMBL document CHEMBL4049458, “Structure-Based Optimization of Thiophene[3,2-d]pyrimidine Derivatives as Potent HIV-1 Non-nucleoside Reverse Transcriptase Inhibitors with Improved Potency against Resistance-Associated Variants” (J Med Chem, 2017).

Bounds are passed on as bounds.

The nature of data set [1]: Selectivity index, ratio of CC50 for human MT4 cells to EC50 for HIV1 RES056 reverse transcriptase K103N/Y181C double mutant infected in human MT4 cells. The following applies: MT4 cells.
Data set [2] is described as follows: Cytotoxicity against human MT4 cells assessed as cell viability after 5 days by MTT assay. Format: cell-based. (In general: Tetrazolium dyes change colour on reduction, which living cells bring about.)
Data set [3] in a line: Selectivity index, ratio of CC50 for human MT4 cells to EC50 for reverse transcriptase L100I mutant in human MT4 cells infected HIV1 3B. The note with it: MT4 cells.
The nature of data set [4]: Selectivity index, ratio of CC50 for human MT4 cells to EC50 for wild type HIV1 3B harboring reverse transcriptase infected in human MT4 cells. The following applies: MT4 cells.
Data set [5] can be described thus: Selectivity index, ratio of CC50 for human MT4 cells to EC50 for reverse transcriptase Y181C mutant in human MT4 cells infected HIV1 3B. The note with it: MT4 cells.
The nature of data set [6]: Selectivity index, ratio of CC50 for human MT4 cells to EC50 for reverse transcriptase F227L/V106A double mutant in human MT4 cells infected HIV1 3B. The following applies: MT4 cells.
Data set [7] can be described thus: Selectivity index, ratio of CC50 for human MT4 cells to EC50 for reverse transcriptase Y188L mutant in human MT4 cells infected HIV1 3B. The note with it: MT4 cells.
Data set [8] in a line: Selectivity index, ratio of CC50 for human MT4 cells to EC50 for reverse transcriptase K103N mutant in human MT4 cells infected HIV1 3B. The following applies: MT4 cells.
The test system of data set [9] is Human immunodeficiency virus 1. Briefly: Antiviral activity against wild type HIV1 3B harboring reverse transcriptase infected in human MT4 cells assessed as protection against virus induced cytotoxicity after 5 days by MTT assay. Format: functional, cell-based. The note with it: Human immunodeficiency virus 1, 3B, MT4, 120 h.
Data set [10] can be described thus: Selectivity index, ratio of CC50 for human MT4 cells to EC50 for reverse transcriptase E138K mutant in human MT4 cells infected HIV1 3B. The following applies: MT4 cells.
In data set [11] the test system is Human immunodeficiency virus 2. Briefly: Antiviral activity against HIV2 ROD harboring reverse transcriptase infected in human MT4 cells assessed as protection against virus induced cytotoxicity after 5 days by MTT assay. Format: functional, cell-based. The note with it: Human immunodeficiency virus 2, ISOLATE ROD, MT4, 120 h.

Broadly, the CC50 is the concentration giving 50% cytotoxicity. Broadly, the EC50 is the midpoint of the concentration-response curve. For the compound `CCOC(=O)c1ccc(CN2CCC(Nc3nc(Oc4c(C)cc(C#N)cc4C)c4ccsc4n3)CC2)cc1`, the selectivity ratio was over 6 in data set [1]; over 160 in data set [3]; over 2330 in data set [4]; over 207 in [5]; over 63 in [6]; over 124 in [7]. For the same compound, the results for the selectivity ratio in [8] and in [10] were over 625 and over 463, respectively. Besides, the half-maximal cytotoxic concentration (CC50) at 120 h in data set [2] is over 230 µM. In addition, the 50% effective concentration (EC50) in data set [9] was 0.0989 µM; in data set [11], over 230 µM.

Turning to `Cc1cc(/C=C/C#N)cc(C)c1Oc1nc(NC2CCN(Cc3ccncc3)CC2)nc2ccsc12`, the selectivity ratio was 162 in data set [1]; 752 in [3]; 1430 in data set [4]; 825 in [5]; 322 in [6]; 148 in data set [7]. Moreover, the results for the selectivity ratio in data set [8] and in [10] were 859 and 560, respectively. Moreover, in [2], the cytotoxic concentration (CC50) at 120 h was found to be 4.78 µM. Further, the results for the concentration for a half-maximal effect (EC50) in data set [9] and in data set [11] were 0.00334 µM and over 4.78 µM, respectively.

In the case of `Cc1cc(/C=C/C#N)cc(C)c1Oc1nc(NC2CCN(Cc3ccccc3F)CC2)nc2ccsc12`, the selectivity ratio in [1] turned out to be 14; in data set [3] it was 32; in data set [4] it was 392; in [5] it was 83; in [6] it was 61; in data set [7], 18. For the same compound, the results for the selectivity ratio in [8] and in [10] were 361 and 74, respectively. For the same compound, the half-maximal cytotoxic concentration (CC50) at 120 h in data set [2] was 2.48 µM. The 50% effective concentration (EC50) in data set [9] was 0.00634 µM; in data set [11] it was over 2.48 µM.

On to `Cc1cc(/C=C/C#N)cc(C)c1Oc1nc(NC2CCN(Cc3ccc(C#N)cc3)CC2)nc2ccsc12`, for which the selectivity ratio in data set [1] was determined as 45; in data set [3] it was 364; in [4], 509; in data set [5], 86; in data set [6], 118; in [7], 81. Also, the figures for the selectivity ratio in data set [8] and in data set [10] were 494 and 91, respectively. In data set [2], the CC50 at 120 h turned out to be 2.67 µM. Also, the EC50 was 0.00526 µM in [9] and over 2.68 µM in data set [11].

For the compound `Cc1cc(/C=C/C#N)cc(C)c1Oc1nc(NC2CCN(Cc3ccc(Cl)cc3)CC2)nc2ccsc12`, the selectivity ratio in [1] was 20; in data set [3] it was 93; in data set [4], 156; in data set [5] it was 51; in data set [6] it was 37; in [7], 22. The selectivity ratio in data set [8] stood at 159; in data set [10], 26. Further, in data set [2], the CC50 at 120 h amounted to 3.98 µM. The results for the EC50 in [9] and in data set [11] were 0.0256 µM and over 3.98 µM, respectively.

For `Cc1ccccc1CN1CCC(Nc2nc(Oc3c(C)cc(/C=C/C#N)cc3C)c3sccc3n2)CC1`, the selectivity ratio in [1] was found to be 3; in data set [3] it was 60; in [4] it was 180; in data set [5], 33; in data set [6] it was 46; in data set [7], 16. Also, the selectivity ratio in data set [8] was 114; in data set [10], 22. The cytotoxic concentration (CC50) at 120 h in data set [2] was determined as 2.83 µM. For the same compound, the results for the EC50 in data set [9] and in [11] were 0.0157 µM and over 2.83 µM, respectively.

Consider `Cc1cc(C#N)cc(C)c1Oc1nc(NC2CCC(NCc3ccc(O)cc3)CC2)nc2ccsc12` (stereo unspecified), for which the selectivity ratio is under 1 in data set [1]; under 1 in data set [3]; 15 in data set [4]; under 1 in [5]; under 1 in data set [6]; under 1 in [7]. Further, the selectivity ratio in data set [8] is 4; in data set [10] it was 5. In addition, the CC50 at 120 h in [2] was found to be 20.1 µM. Moreover, the concentration giving a half-maximal response (EC50) in [9] is 1.31 µM; in data set [11], over 20.1 µM.

In the case of `Cc1cc(/C=C/C#N)cc(C)c1Oc1nc(NC2CCN(Cc3cccc(Br)c3)CC2)nc2ccsc12`, the selectivity ratio in [1] is 37; in data set [3], 279; in data set [4] it was 308; in data set [5], 62; in data set [6] it was 85; in data set [7], 48. Also, the selectivity ratio was determined as 269 in data set [8] and 61 in data set [10]. Further, in data set [2], the CC50 at 120 h was found to be 7.95 µM. Further, the EC50 in data set [9] was 0.0258 µM; in data set [11], over 7.95 µM.

Take `Cc1cc(C#N)cc(C)c1Oc1nc(NC2CCC(NCc3ccccc3)CC2)nc2ccsc12` (stereo unspecified): the selectivity ratio in data set [1] was under 1; in [3], 3; in [4], 13; in data set [5], under 1; in data set [6], 3; in data set [7] it was under 1. The values for the selectivity ratio in data set [8] and in data set [10] were 4 and 3, respectively. For the same compound, in [2], the CC50 at 120 h worked out at 2.97 µM. Also, the results for the EC50 in [9] and in [11] were 0.23 µM and over 2.97 µM, respectively.

Regarding `Cc1ccc(CN2CCC(Nc3nc(Oc4c(C)cc(/C=C/C#N)cc4C)c4sccc4n3)CC2)cc1`, the selectivity ratio in [1] turned out to be 20; in [3], 91; in [4], 326; in data set [5] it was 98; in data set [6], 22; in data set [7] it was 21. Moreover, the selectivity ratio in [8] amounted to 258; in [10], 90. The CC50 at 120 h in data set [2] turned out to be 2.91 µM. Moreover, the values for the EC50 in data set [9] and in [11] were 0.00891 µM and over 2.91 µM, respectively.

In the case of `Cc1cc(/C=C/C#N)cc(C)c1Oc1nc(NC2CCN(Cc3ccccc3Cl)CC2)nc2ccsc12`, the selectivity ratio in data set [1] came out at 30; in data set [3], 162; in data set [4], 179; in [5] it was 37; in data set [6], 68; in data set [7], 24. Besides, the selectivity ratio turned out to be 169 in data set [8] and 31 in data set [10]. In addition, the 50% cytotoxic concentration (CC50) at 120 h in [2] was determined as 4.93 µM. The EC50 was 0.0274 µM in data set [9] and over 4.93 µM in data set [11].

With `Cc1cc(C#N)cc(C)c1Oc1nc(NC2CCN(Cc3cccc(C(N)=O)c3)CC2)nc2sccc12`, the selectivity ratio was over 10 in data set [1]; over 4630 in data set [3]; over 9420 in data set [4]; over 5300 in [5]; over 1930 in data set [6]; over 2870 in [7]. The figures for the selectivity ratio in data set [8] and in [10] were over 5490 and over 5610, respectively. The cytotoxic concentration (CC50) at 120 h in data set [2] was over 48.7 µM. Moreover, the EC50 was 0.00517 µM in data set [9] and over 48.7 µM in data set [11].

Turning to `CCOC(=O)C1CN(Cc2ccc(S(N)(=O)=O)cc2)CCC1Nc1nc(Oc2c(C)cc(C#N)cc2C)c2sccc2n1` (stereo unspecified), the selectivity ratio is at most 5 in data set [1]; 11 in [3]; 32 in [4]; 23 in data set [5]; 3 in data set [6]; under 1 in [7]. In addition, the selectivity ratio in data set [8] stood at 18; in [10] it was 7. Moreover, the CC50 at 120 h in [2] came to 4.24 µM. The EC50 in data set [9] was 0.134 µM; in [11], over 4.24 µM.

Consider `Cc1cc(/C=C/C#N)cc(C)c1Oc1nc(NC2CCN(Cc3ccc(F)cc3)CC2)nc2ccsc12`, for which the selectivity ratio was 20 in data set [1]; 181 in [3]; 441 in data set [4]; 95 in data set [5]; 25 in data set [6]; 17 in data set [7]. In addition, the values for the selectivity ratio in data set [8] and in data set [10] were 405 and 74, respectively. The 50% cytotoxic concentration (CC50) at 120 h in data set [2] is 2.58 µM. Besides, the concentration giving a half-maximal response (EC50) is 0.00586 µM in data set [9] and over 2.58 µM in data set [11].

`COC(=O)c1ccc(CN2CCC(Nc3nc(Oc4c(C)cc(C#N)cc4C)c4ccsc4n3)CC2)cc1`: the selectivity ratio stood at 19 in data set [1]; 214 in data set [3]; 5450 in data set [4]; 316 in data set [5]; 109 in data set [6]; 181 in data set [7]. Also, the selectivity ratio in data set [8] came to 982; in data set [10] it was 805. Moreover, the CC50 at 120 h in [2] worked out at 28.6 µM. Moreover, the EC50 in data set [9] is 0.00526 µM; in data set [11], over 28.6 µM.

Consider `Cc1cc(/C=C/C#N)cc(C)c1Oc1nc(NC2CCN(Cc3ccccc3Br)CC2)nc2ccsc12`, for which the selectivity ratio worked out at 16 in [1]; 117 in [3]; 140 in data set [4]; 45 in data set [5]; 63 in [6]; 37 in data set [7]. For the same compound, the selectivity ratio in [8] came to 124; in data set [10], 39. Also, the half-maximal cytotoxic concentration (CC50) at 120 h in data set [2] turned out to be 5.61 µM. Also, the results for the concentration giving a half-maximal response (EC50) in [9] and in data set [11] were 0.0402 µM and over 5.61 µM, respectively.
